Assay results from patent publication US11433055B2, “Chromane monobactam compounds for the treatment of bacterial infections” (priority 2017, dated 2022).
Counter-ions that a name gives are not always drawn.

How the values were obtained:
Format in all cases: cell-based
Conditions in all cases: lowest concentration inhibiting 95% of bacterial growth; in the presence of β lactamase inhibitor (BLi, Relebactam); 22 hours, 35±2° C., OD600
[1] = test system: Pseudomonas aeruginosa expressing AmpC (CL5701)
Method: (§1) Antibiotic Activity: Determination of Growth Inhibitory Concentration
(§2) The concentrations of compounds required to inhibit the growth of various strains of bacteria were determined in an assay that assessed bacterial growth by measuring optical density at 600 nm (OD600). The bacterial strains tested included the clinical strains Escherichia coli expressing NDM-1 (CLB30016), Klebsiella pneumoniae expressing KPC-1 (CL6569), Acinetobacter baumannii expressing TEM-1, AmpC, and Oxa-24/40 (CL6188) and Pseudomonas aeruginosa expressing AmpC (CL5701). All compounds were tested in the presence of a β lactamase inhibitor (BLi, Relebactam) in 384-well microplates. The clinical strains were stored as frozen single use stocks, thawed and diluted into 1.1× cation-adjusted Mueller-Hinton II broth to achieve approximately 2×10^5 CFU/mL. Test compounds were dissolved in DMSO and diluted 1:50 in the assay, resulting in a final concentration range of 100 μM to 0.098 μM. On the day of the assay, 1 μL of test compound was added to the plate followed by 4 μL of 50 μg/mL BLi in MOPS buffer and 45 μL of diluted bacteria. Plates were centrifuged at 1000 rpm for 30 seconds, shaken at approximately 800 rpm for 1 minute, and incubated at 35±2° C. for 22 hours. The concentration of BLi used in the assay was […]. At the end of the incubation, absorbance at 600 nm was determined using a spectrophotometer. Inhibition was quantitated by identifying the lowest concentration of test compound that was required to inhibit 95% of the growth of the bacteria. The results for Examples 1-39 are reported in Table I, expressed as the concentration of compound that inhibited 95% of bacterial growth (Minimum Inhibitory Threshold Concentration; MITC95).

[2] = test system: Escherichia coli expressing NDM-1 (CLB30016)
Method: as §1, §2

[3] = test system: Klebsiella pneumoniae expressing KPC-1 (CL6569)
Method: as §1, §2

[4] = test system: Acinetobacter baumannii expressing TEM-1, AmpC, and Oxa-24/40 (CL6188)
Method: as §1, §2

Compound	PA_CL5701 MITC95 [1]	EC_CLB30016 MITC95 [2]	KP_CL6569 MITC95 [3]	AB_CL6188 MITC95 [4]
C[n+]1cc(-c2ccc3c(c2)OCC(CO/N=C(\C(=O)N[C@@H]2C(=O)N(OS(=O)(=O)[O-])C2(C)C)c2csc(N)n2)C3)ccc1NCCN.O=C(O)C(F)(F)F (single isomer, unassigned) [Example 37A]	3.13 µM	12.5 µM	0.78 µM	12.5 µM
C[n+]1cc(-c2ccc3c(c2)CC[C@H]([C@](C)(O/N=C(\C(=O)N[C@@H]2C(=O)N(OS(=O)(=O)[O-])C2(C)C)c2csc(N)n2)C(=O)O)O3)cnc1NC[C@H](O)CN.O=CO [Example 17, (S)-3-((Z)-2-(2-aminothiazol-4-yl)-2-(((S)-1-((R)-6-(2-(((R)-3-ammonio-2-hydroxy-propyl)amino)-1-methyl-pyrimidin-1-ium-5-yl)chroman-2-yl)-1-carboxy-ethoxy)imino)acetamido)-2,2-dimethyl-4-oxoazetidin-1-yl sulfate formate]	6.25 µM	6.25 µM	0.3906 µM	12.5 µM
C[n+]1cc(-c2ccc3c(c2)CC[C@@H](CO/N=C(\C(=O)N[C@@H]2C(=O)N(OS(=O)(=O)[O-])C2(C)C)c2csc(N)n2)O3)ccc1NCCN [Example 36, mono((R)-3-((Z)-2-(2-aminothiazol-3-ium-4-yl)-2-((((S)-6-(6-((2-ammonioethyl)amino)-1-methyl-pyridin-1-ium-3-yl)chroman-2-yl)methoxy)imino)acetamido)-2,2-dimethyl-4-oxoazetidin-1-yl sulfate) mono(2,2,2-trifluoroacetate)]	6.25 µM	12.5 µM	0.7813 µM	3.125 µM
CC1(C)[C@H](NC(=O)/C(=N\O[C@](C)(C(=O)O)[C@H]2CCc3cc(C4CNC(NCCN)=N4)ccc3O2)c2csc(N)n2)C(=O)N1OS(=O)(=O)O (single isomer, unassigned) [Example 25]	3.125 µM	6.25 µM	0.3906 µM	50 µM
CC1(C)[C@H](NC(=O)/C(=N\O[C@](C)(C(=O)O)[C@H]2CCc3cc(-c4cnc(NCCCN)nc4)ccc3O2)c2csc(N)n2)C(=O)N1OS(=O)(=O)O [Example 33, 3-((5-((R)-2-((S)-1-((((Z)-1-(2-aminothiazol-4-yl)-2-(((S)-2,2-dimethyl-4-oxo-1-(sulfooxy)azetidin-3-yl)amino)-2-oxoethylidene)amino)oxy)-1-carboxyethyl)chroman-6-yl)pyrimidin-2-yl)amino)propan-1-aminium Formate]	6.25 µM	6.25 µM	0.3906 µM	3.125 µM
CC1(C)[C@H](NC(=O)/C(=N\O[C@](C)(C(=O)O)[C@H]2CCc3cc(-c4cn(C[C@@H](O)CN)[n+](C[C@H]5CCNC5)c4)ccc3O2)c2csc(N)n2)C(=O)N1OS(=O)(=O)[O-] [Example 41, mono((S)-3-((Z)-2-(((S)-1-((R)-6-(1-((S)-3-amino-2-hydroxypropyl)-2-(((S)-pyrrolidin-1-ium-3-yl)methyl)-1H-pyrazol-2-ium-4-yl)chroman-2-yl)-1-carboxyethoxy)imino)-2-(2-aminothiazol-4-yl)acetamido)-2,2-dimethyl-4-oxoazetidin-1-yl sulfate) mono (2,2,2-trifluoroacetate)]	0.78 µM	>50 µM	0.1 µM	1.56 µM
CC1(C)[C@H](NC(=O)/C(=N\O[C@](C)(C(=O)O)C2CCc3cc(-c4cn(C[C@@H](O)CN)[n+](CCCN)c4)ccc3O2)c2csc(N)n2)C(=O)N1OS(=O)(=O)[O-] (mixture of isomers) [Example 5, (3 S)-3-((Z)-2-(((1 S)-1-(6-(1-((S)-3-amino-2-hydroxypropyl)-2-(3-aminopropyl)-1H-pyrazol-2-ium-4-yl)chroman-2-yl)-1-carboxyethoxy)imino)-2-(2-aminothiazol-4-yl)acetamido)-2,2-dimethyl-4-oxoazetidin-1-yl Sulfate]	50 µM	100 µM	6.25 µM	25 µM
C[n+]1cc(-c2ccc3c(c2)CC[C@@H](CO/N=C(\C(=O)N[C@@H]2C(=O)N(OS(=O)(=O)[O-])C2(C)C)c2csc(N)n2)O3)cn1CCCN [Example 10, (S)-3-((Z)-2-((((S)-6-(1-(3-aminopropyl)-2-methyl-1H-pyrazol-2-ium-4-yl)chroman-2-yl)methoxy)imino)-2-(2-aminothiazol-4-yl)acetamido)-2,2-dimethyl-4-oxoazetidin-1-yl sulfate]	6.25 µM	6.25 µM	0.3906 µM	12.5 µM
(S)-3-((Z)-2-(((S)-1-((R)-6-(1-(3-Aminopropyl)-2-(azetidin-3-ylmethyl)-1H-pyrazol-2-ium-4-yl)chroman-2-yl)-1-carboxyethoxy)imino)-2-(2-aminothiazol-4-yl)acetamido)-2,2-dimethyl-4-oxoazetidin-1-yl Sulfate [Example 3]	6.25 µM	3.13 µM	0.39 µM	6.25 µM
CC1(C)[C@H](NC(=O)/C(=N\O[C@](C)(C(=O)O)[C@H]2CCc3cc(C4=CN=C(NCCCN)NC4)ccc3O2)c2csc(N)n2)C(=O)N1OS(=O)(=O)O [Example 32, 2-((3-aminopropyl)amino)-5-((R)-2-((S)-1-((((Z)-1-(2-aminothiazol-4-yl)-2-(((S)-2,2-dimethyl-4-oxo-1-(sulfooxy)azetidin-3-yl)amino)-2-oxoethylidene)amino)oxy)-1-carboxyethyl)chroman-6-yl)-3,4-dihydropyrimidin-1-ium Formate]	3.125 µM	3.125 µM	0.1953 µM	3.125 µM
C[n+]1cc(-c2ccc3c(c2)CC[C@H](CO/N=C(\C(=O)N[C@@H]2C(=O)N(OS(=O)(=O)[O-])C2(C)C)c2csc(N)n2)O3)ccc1NCCN [Example 35, mono((R)-3-((Z)-2-(2-aminothiazol-3-ium-4-yl)-2-((((R)-6-(6-((2-ammonioethyl)amino)-1-methyl-pyridin-1-ium-3-yl)chroman-2-yl)methoxy)imino)acetamido)-2,2-dimethyl-4-oxoazetidin-1-yl sulfate) mono(2,2,2-trifluoroacetate)]	50 µM	25 µM	1.281 µM	6.25 µM
C[n+]1cc(-c2ccc3c(c2)CC[C@H]([C@](C)(O/N=C(\C(=O)N[C@@H]2C(=O)N(OS(=O)(=O)[O-])C2(C)C)c2csc(N)n2)C(=O)O)O3)ccc1NCCN [Example 34, mono((S)-3-((Z)-2-(2-aminothiazol-3-ium-4-yl)-2-(((S)-1-((R)-6-(6-((2-ammonioethyl)amino)-1-methylpyridin-1-ium-3-yl)chroman-2-yl)-1-carboxy-ethoxy)imino)acetamido)-2,2-dimethyl-4-oxoazetidin-1-yl sulfate) mono(2,2,2-trifluoroacetate)]	25 µM	25 µM	0.78 µM	12.5 µM
C[n+]1cc(-c2ccc3c(c2)CC[C@H](CO/N=C(\C(=O)N[C@@H]2C(=O)N(OS(=O)(=O)[O-])C2(C)C)c2csc(N)n2)O3)cn1CCCN [Example 11, (S)-3-((Z)-2-((((R)-6-(1-(3-aminopropyl)-2-methyl-1H-pyrazol-2-ium-4-yl)chroman-2-yl)methoxy)imino)-2-(2-aminothiazol-4-yl)acetamido)-2,2-dimethyl-4-oxoazetidin-1-yl sulfate]	3.125 µM	6.25 µM	0.7813 µM	3.125 µM
C[n+]1cc(-c2ccc3c(c2)OCC(CO/N=C(\C(=O)N[C@@H]2C(=O)N(OS(=O)(=O)[O-])C2(C)C)c2csc(N)n2)C3)ccc1NCCN.O=C(O)C(F)(F)F (single isomer, unassigned) [Example 37B]	25 µM	100 µM	6.25 µM	50 µM
